# From patent publication US20250186436A1 (4E Therapeutics, Inc., priority 2021, published 2025)
# Where “and” joins values, the source holds several entries; their conditions need not be identical. Equal values may be shown once.
# Key:
# [1] = PK study in CD-1 male mice with IV and PO dosing (Example 3); format: in vivo; details: for AUC(0-t): AUClast; for concentration at 24 h: Clast; for MRT inf: MRTinf
# Description: Example 3: PK study of 4ET-03-053 in CD-1 male mice with IV and PO dosing
# In mice, following IV administration with 1.5 mg/kg, plasma concentrations declined in a multiphasic manner with an initial concentration (Co) of 708 ng/mL and a last measurable concentration (Clast) of 5.29 ng/mL at 24 h post dose.
# [2] = Plasma and brain concentrations, brain to plasma ratio in SD rats 2 hr after single 10 mg/kg PO (Example 4); format: in vivo; details: 2 hr post single PO dose 10 mg/kg; for concentration at 2 hr: Sprague-Dawley, po
# Description: A brain to plasma ratio of 0.096 (BP=0.096) in SD rats is observed at 2 hr following a single 10 mg/kg dose of 4ET-03-053.
# [3] = Plasma and brain concentrations, brain:plasma ratio in rats 2 hr after single PO 1 mg/kg (Example 5); format: in vivo; details: for concentration at 2 hr: po
# Description: Table 15 provides plasma and brain concentrations at 2 hr after a single P0 dose of 1 mg/kg.
# [4] = Plasma and brain concentrations, brain to plasma ratio 24 hr after last of five 10 mg/kg PO doses (Example 7); format: in vivo; details: rats, 24 hr after the last of five 10 mg/kg PO doses; for concentration at 24 h: oral, 10 mg/kg
# Text: Table 21 provides plasma and brain concentrations at 24 hr after the last dose of five daily P0 doses of 4ET-03-053.
# paclitaxel CIPN mice = assay: Conditioned Place Preference (CPP) test with chemotherapy induced peripheral neuropathy (CIPN) mice; format: in vivo
# Description: Mice were treated over a period of 8 days with 4 injections of paclitaxel, made in ethanol and kollipher vehicle, each at 4 mg/kg for a cumulative dose of 16 mg/kg. […] 4ET-03-053 was given with pairing with the white chamber in the CPP box with the idea that pain relief in the white chamber will counteract the natural aversion mice have to areas with bright light.
# [5] = test system: eIF4E phosphorylation in hDRGs; assay: p-eIF4E immunofluorescence in cultured human dorsal root ganglion cells (hDRGs); format: cell-based; details: immunofluorescence
# Description: For all human DRG experiments, DRGs were recovered from organ donors at the Southwest Transplant Alliance under an IRB approved protocol at University of Texas at Dallas. DRGs were recovered within 3 hrs of cross clamp. DRGs were recovered and taken back to the University of Texas lab where they were cultured using the protocol described previously. Cultures were grown on glass coverslips for microscopy. Coverslips were coated with poly-D-lysine and laminin to improve neuronal adherence to the coverslips. Cultures of human DRG neurons were grown for 4-7 days prior to treatment with OSM. OSM treatment was done in culture media for a period of 30 min. Cells were stained with antibodies using the same protocol as described above for HEK293 cells. Imaging was done on an Olympus FV1200 microscope and image analysis was done with CellSens software. Statistical analysis was done with Graphpad Prism V8.
# Human DRG recovery and other experimental protocols were the same as described herein.
# [6] = test system: eIF4E phosphorylation in mouse tissues; assay: In vivo biochemical assay (Western blot) of eIF4E phosphorylation in mouse tissues; details: mice, PO 10 mg/kg
# Description: […] Tissues were acutely dissected and immediately frozen. Frozen samples were later bead homogenized with protease and phosphatase inhibitor cocktails present in the homogenization buffer and then protein was quantified by Bradford assay. 20 μg of protein was run per lane on standard SDS-PAGE. Blots were probed with antibodies against p-eIF4E and total-eIF4E and imaged on a BioRad imaging system. […] However, inhibition of phosphorylation of eIF4E in the brain was not observed, as determined by Western blot analysis of brain tissue from the cortex.
# [7] = Liver microsome stability; details: mouse, liver microsomes
# P-gp (human MDR1, ABCB1) = assay: MDCK-MDR1 permeability (blood-brain barrier permeability); details: dog
# [8] = male, CD-1, mouse, in vivo, iv, 1.5 mg/kg
# [9] = male, CD-1, mouse, in vivo, po, 10 mg/kg
# [10] = individual animals (n = 3), 10 mg/kg
structure (smiles),measurement,setting,value
"Cc1cc(Nc2cc(N)ncn2)c(=O)n2c1C(=O)NC21CCC2(CC2)CC1 [4ET-03-053, 6″-((6-Aminopyrimidin-4-yl)amino)-8″-methyl-2″H-dispiro[cyclopropane-1,1′-cyclohexane-4′,3″-imidazo[1,5-a]pyridine]-1″,5″-dione]",F,"[1]; CD-1 male mice, 10 mg/kg PO, individual animals, 10 mg/kg",75.6%
same,clinical observation after dosing,[1]; [8],lying on side and immobile with heavy breathing for about 1 min
same,AUC(0-inf),"[1]; male, CD-1, mouse, in vivo, iv, 1.5 mg/kg, AUCinf",1530 ng·h/mL
same,AUC(0-t),[1]; [8],1300 ng·h/mL
same,clearance,"[1]; male, CD-1, mouse, in vivo, iv, 1.5 mg/kg, CLp",19.3 mL/min/kg
same,concentration at 24 h,[1]; [8],5.29 ng/mL
same,MRT inf,[1]; [8],4.93 h
same,Vd,"[1]; male, CD-1, mouse, in vivo, iv, 1.5 mg/kg, Vss",5.63 L/kg
same,half-life,"[1]; male, CD-1, mouse, in vivo, iv, 1.5 mg/kg, t1/2",6.17 h
same,AUC(0-inf),"[1]; male, CD-1, mouse, in vivo, iv, 1.5 mg/kg, total systemic exposure (AUCinf)",1320 ng·h/mL
same,Tmax,[1]; [9],0.5 h
same,bioavailability,[1]; [9],75%
same,time to mean peak plasma concentration,[1]; [9],≤ 30 min
same,AUC(0-inf),"[1]; male, CD-1, mouse, in vivo, po, 10 mg/kg, AUCinf",6670 ng·h/mL
same,AUC(0-t),[1]; [9],6420 ng·h/mL
same,concentration at 24 h,[1]; [9],33.2 ng/mL
same,Cmax,"[1]; male, CD-1, mouse, in vivo, po, 10 mg/kg, Cmax",807 ng/mL
same,MRT inf,[1]; [9],6.7 h
same,half-life,"[1]; male, CD-1, mouse, in vivo, po, 10 mg/kg, t1/2",5.14 h
same,AUC(0-inf),"[1]; male, CD-1, mouse, in vivo, po, 10 mg/kg, total systemic exposure (AUCinf)",6620 ng·h/mL
same,clinical observation after dosing,"[1]; mice, slow IV injection at 3 mg/kg, first animal",died immediately after a slow IV injection
same,half-life,"[1]; mouse, in vivo, CD-1 male mice, 10 mg/kg PO, individual animals, read-out: t1/2 (converted)",5.11 h
same,Brain Tissue Homogenate Conc.,[2]; [10],406 ng/mL and 323 ng/mL
same,Plasma Conc.,[2]; [10],16900 ng/mL and 14400 ng/mL
same,Kp at 2 h,"[2]; Sprague Dawley, rat, brain/plasma, read-out: Mean Tissue/Plasma Conc. Ratio (brain to plasma ratio)",0.096
same,concentration at 2 hr,"[2]; rat, brain tissue homogenate, 10 mg/kg, individual animals (n = 3), read-out: Brain Tissue Homogenate Conc.",319 ng/mL
same,concentration at 2 hr,"[2]; rat, brain tissue homogenate, 10 mg/kg, mean, read-out: Brain Tissue Homogenate Conc., Mean",349 ng/mL
same,concentration at 2 hr,"[2]; rat, brain, 10 mg/kg, read-out: Brain Mean Tissue",1400 ng/g
same,concentration at 2 hr,"[2]; rat, plasma, 10 mg/kg, individual animals (n = 3), read-out: Plasma Conc.",12200 ng/mL
same,concentration at 2 hr,"[2]; rat, plasma, 10 mg/kg, mean, read-out: Plasma Conc., Mean",14500 ng/mL
same,concentration at 2 hr,"[3]; male, Sprague-Dawley, rat, brain homogenate, 1 mg/kg, rats, brain homogenate, 2 hr after single PO 1 mg/kg, individual animals (n = 3), read-out: Tissue Homogenate Conc.",9.82 ng/mL
same,concentration at 2 hr,"[3]; male, Sprague-Dawley, rat, brain homogenate, 1 mg/kg, rats, brain homogenate, 2 hr after single PO 1 mg/kg, mean, read-out: Tissue Homogenate Conc., Mean",11.8 ng/mL
same,concentration at 2 hr,"[3]; male, Sprague-Dawley, rat, brain, 1 mg/kg, rats, brain, 2 hr after single PO 1 mg/kg, read-out: Mean Tissue",47.2 ng/g
same,concentration at 2 hr,"[3]; male, Sprague-Dawley, rat, plasma, 1 mg/kg, rats, plasma, 2 hr after single PO 1 mg/kg, individual animals (n = 3), read-out: Plasma Conc.",506 ng/mL
same,concentration at 2 hr,"[3]; male, Sprague-Dawley, rat, plasma, 1 mg/kg, rats, plasma, 2 hr after single PO 1 mg/kg, mean, read-out: Plasma Conc., Mean",566 ng/mL
same,Kp at 2 hr,"[3]; male, Sprague-Dawley, rat, rats, brain to plasma, 2 hr after single PO 1 mg/kg, read-out: Mean Tissue/Plasma Conc. Ratio",0.083
same,Kp at 2 h,"[3]; rat, brain, Sprague-Dawley rats, 2 hr after a single PO dose of 1 mg/kg",0.083
same,Tissue Homogenate Conc.,"[3]; rats, brain homogenate, 2 hr after single PO 1 mg/kg, individual animals (n = 3), 1 mg/kg",11.4 ng/mL and 14.2 ng/mL
same,Plasma Conc.,"[3]; rats, plasma, 2 hr after single PO 1 mg/kg, individual animals (n = 3), 1 mg/kg",539 ng/mL and 652 ng/mL
same,concentration at 24 h,"[4]; male, Sprague-Dawley, rat, brain homogenate, brain homogenate, individual animals (n = 3), read-out: Tissue Homogenate Conc.",75.6 ng/mL
same,concentration at 24 h,"[4]; male, Sprague-Dawley, rat, brain homogenate, brain homogenate, mean, read-out: Tissue Homogenate Conc., Mean",85.6 ng/mL
same,concentration at 24 h,"[4]; male, Sprague-Dawley, rat, brain, brain, read-out: Mean Tissue",342 ng/g
same,concentration at 24 h,"[4]; male, Sprague-Dawley, rat, plasma, plasma, individual animals (n = 3), read-out: Plasma Conc.",2390 ng/mL
same,concentration at 24 h,"[4]; male, Sprague-Dawley, rat, plasma, plasma, mean, read-out: Plasma Conc., Mean",2670 ng/mL
same,Kp at 24 h,"[4]; male, Sprague-Dawley, rat, brain to plasma, read-out: Mean Tissue/Plasma Conc. Ratio",0.128
same,Tissue Homogenate Conc.,"[4]; brain homogenate, individual animals (n = 3)",88.2 ng/mL and 93.0 ng/mL
same,Plasma Conc.,"[4]; plasma, individual animals (n = 3)",2740 ng/mL and 2880 ng/mL
same,CPP: time in white (drug-paired) chamber,"paclitaxel CIPN mice; CIPN mice (paclitaxel), 10 mg/kg",spent more time in the white chamber vs. dark chambers
same,CPP: effect in mice without CIPN (reward),paclitaxel CIPN mice; mice that did not have CIPN,no effect
same,phosphorylation of eIF4E in hDRGs,[5]; 30 min treatment,reduces phosphorylation of eIF4E
same,phosphorylation of eIF4E in hDRGs in the presence of OSM,[5]; in presence of OSM,reduces phosphorylation of eIF4E
same,inhibition of phosphorylation of eIF4E in the brain (cortex),[6],not observed
same,inhibition of eIF4E phosphorylation in DRGs,[6]; 2 hours post dose,significant inhibition
same,inhibition of eIF4E phosphorylation in sciatic nerve,[6]; 2 hours post dose,significant inhibition
same,inhibition of eIF4E phosphorylation in spleen,[6]; 2 hours post dose,significant inhibition
same,half-life,[7],3.8 h
same,Papp A→B at 5 uM,"P-gp (human MDR1, ABCB1)",63.3 ×10⁻⁶ cm/s
same,Papp B→A at 5 uM,"P-gp (human MDR1, ABCB1)",68.1 ×10⁻⁶ cm/s
same,efflux ratio at 5 uM,"P-gp (human MDR1, ABCB1)",1.1
